Data reported in PubChem BioAssay (NCI).
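Growth conditions: 96-well plates. Treatment: test compound, 48 hours, 5 concentrations. Analysis: linear interpolation between bracketing concentrations; unreached endpoints set to highest concentration. At the TGI there is no net growth.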

Experiments:
Test in all cases: growth of human tumour cells (NCI), 48 h
A549 NSCLC = tested on: A549 NSCLC
DLD-1 colon = tested on: DLD-1 colon
MOLT-4 leukemia = tested on: MOLT-4 leukemia
DMS 114 small cell lung = tested on: DMS 114 small cell lung
LXFL 529 NSCLC = tested on: LXFL 529 NSCLC
SNB-78 CNS = tested on: SNB-78 CNS
HOP-18 NSCLC = tested on: HOP-18 NSCLC
M19-MEL melanoma = tested on: M19-MEL melanoma
SR leukemia = tested on: SR leukemia
U251 CNS = tested on: U251 CNS
NCI/ADR-RES ovarian = tested on: NCI/ADR-RES ovarian
DMS 273 small cell lung = tested on: DMS 273 small cell lung
XF 498 CNS = tested on: XF 498 CNS
KM20L2 colon = tested on: KM20L2 colon
RXF-631 renal = tested on: RXF-631 renal

Row | SMILES | TGI (A549 NSCLC) | TGI (DLD-1 colon) | TGI (MOLT-4 leukemia) | TGI (DMS 114 small cell lung) | TGI (LXFL 529 NSCLC) | TGI (SNB-78 CNS) | TGI (HOP-18 NSCLC) | TGI (M19-MEL melanoma) | TGI (SR leukemia) | TGI (U251 CNS) | TGI (NCI/ADR-RES ovarian) | TGI (DMS 273 small cell lung) | TGI (XF 498 CNS) | TGI (KM20L2 colon) | TGI (RXF-631 renal)
1 | NC(=S)N/N=C/c1cn(CCCl)c2ccccc12 | > 100 µM | > 100 µM | > 100 µM | > 100 µM | > 100 µM | > 100 µM | > 100 µM | > 100 µM | > 100 µM |  |  |  |  |  | 
2 | CCC1CN2CCc3cc(OC)c(OC)cc3C2CC1CC1c2cc(OC)c(OC)cc2CCN1C(=O)C(Cc1c[nH]c2ccccc12)NC(=O)OC(C)(C)C (stereo not drawn) | 7.93 µM | 27.4 µM | 8.07 µM | 3.06 µM | 10.8 µM | 40.5 µM | 18.7 µM | 3.11 µM | 13.8 µM | 6.29 µM | 3.02 µM | 19.1 µM | 3.19 µM | 3.8 µM | 
3 | O=C1CCN(CCC(F)(F)C(F)(F)C(F)(F)C(F)(F)F)C(=S)N1 | > 100 µM |  | > 100 µM | > 100 µM | > 100 µM | > 100 µM |  | > 100 µM | > 100 µM | > 100 µM |  | > 100 µM | > 100 µM | > 100 µM | 
4 | CCOC(=O)C(CC(C)C)NC(=O)C(N)Cc1ccc(N(CCCl)CCCl)cc1 (stereo not drawn) | 45.1 µM | 8.27 µM | 1.68 µM | 7.54 µM | 8.29 µM |  | 16.1 µM | 4.57 µM | 4.69 µM | 22.4 µM |  | 13.2 µM | 3.87 µM | 13.5 µM | 
5 | Cc1ccc(NCCO)cc1 | > 100 µM | > 100 µM | > 100 µM | > 100 µM | > 100 µM | > 100 µM |  |  | > 100 µM | > 100 µM |  |  | > 100 µM | > 100 µM | 
6 | CC1OC(n2ccc3ccc([N+](=O)[O-])cc32)C(O)C(O)C1O (stereo not drawn) | > 100 µM | > 100 µM | > 100 µM | > 100 µM | > 100 µM | > 100 µM |  | > 100 µM | > 100 µM | > 100 µM |  | > 100 µM | > 100 µM | > 100 µM | 
7 | COc1ccc(/C=C2\C(=O)Nc3ccccc32)cc1OC | > 100 µM |  | > 100 µM |  | > 100 µM | > 100 µM | > 100 µM |  |  | > 100 µM |  | > 100 µM | > 100 µM | > 100 µM | 
8 | CC1=N/C(=C\c2ccc(N)cc2)C(=O)N1Nc1nnc(NN2C(=O)/C(=C/c3ccc(N)cc3)N=C2C)c2ccccc12 | > 100 µM | > 100 µM | > 100 µM |  | > 100 µM |  | > 100 µM | > 100 µM | > 100 µM | > 100 µM |  | > 100 µM |  | > 100 µM | 
9 | Cc1ccc2[nH]c3c(C)c4cc[n+](C)cc4c(C)c3c2c1 | 4.28 µM | 49.8 µM | 54.9 µM | 2.73 µM | 5.01 µM | 4.82 µM | > 58.5 µM |  | 70.7 µM | 2.11 µM | > 100 µM | 17.7 µM |  | 71.3 µM | 
10 | Nc1ccc(N=Nc2ccc(-c3ccc(N=Nc4c(S(=O)(=O)O)cc5cc(S(=O)(=O)O)c(N=Nc6ccc([N+](=O)[O-])cc6)c(N)c5c4O)cc3)cc2)c2cc(S(=O)(=O)O)ccc12 | > 100 µM | > 100 µM | > 100 µM |  | > 100 µM | > 100 µM |  | > 100 µM | > 100 µM | > 100 µM |  | > 100 µM | > 100 µM | > 100 µM | 
11 | COc1cc(/C=C(\C)c2ccc3c(c2)OCO3)cc(OC)c1OC | > 100 µM | > 100 µM | 75.9 µM | 87 µM | 96 µM | > 100 µM | > 100 µM | > 100 µM | 59.7 µM | > 100 µM |  | 96.3 µM |  | > 100 µM | > 100 µM
12 | CNc1cccc(-c2cc(=O)c3cc4c(cc3[nH]2)OCO4)c1 | > 91.8 µM | 0.969 µM | > 20.9 µM | 7.84 µM | > 100 µM | > 100 µM | > 100 µM | > 100 µM | > 100 µM | > 49.5 µM | 0.568 µM | 16.9 µM | > 100 µM |  | 
13 | N#CC(NNC(=O)Cc1ccccc1)c1ccc(O)cc1 (stereo not drawn) | > 100 µM | > 100 µM | > 100 µM | > 100 µM | > 100 µM |  | > 100 µM | > 100 µM | > 100 µM | > 100 µM |  | > 100 µM |  |  | 
14 | Nc1c2ccccc2nc2nccnc12 | > 100 µM | > 100 µM | > 100 µM | > 100 µM |  | > 100 µM | > 100 µM | > 100 µM | > 100 µM | > 100 µM |  | > 100 µM | > 100 µM | > 100 µM | 
15 | CCN1CCC(O)(/C=C/c2cccc(C)c2)C(C(=O)/C=C/c2cccc(C)c2)C1 (stereo not drawn) | 5.97 µM |  | > 21.5 µM |  |  |  |  |  | > 100 µM | 3.31 µM | 5.99 µM |  |  |  | 
